These results are taken from paper PMC5068747, “Using C. elegans Forward and Reverse Genetics to Identify New Compounds with Anthelmintic Activity” (PLoS Neglected Tropical Diseases, 2016).

Like-named read-outs stand apart in the source and are kept apart here. Some results are limits rather than exact numbers.

Experiment [1] concerns C. elegans VC2010 (wild type). Description: WormScan screen of C. elegans growth, fecundity, motility and mortality. It counts as in vivo, Caenorhabditis elegans. More on the design: normalized WormScan score: dose or concentration left out as unconfirmed. The protocol: (§1) All compound libraries were stored in 96-well plates, with 80 drugs per plate (columns 1 and 12 left empty). A BioGrid BG600 pinning robot (Digilab / BioRobotics) was used for compound transfer. The robot uses a 96-pin tool (0.7 mm dia.) to transfer a nominal volume of 340 nL of compound. For retesting, compounds were hand pinned from the original library plates to assay plates using a single 0.7 mm dia. pin. The assay plates were 96-well clear flat-bottom microplates containing 2% χ1666 E.coli bacteria in 0.5X Liquid Nematode Growth Media (LNGM) plus cholesterol (Bacteria were mass-grown in rich media, and harvested by centrifugation to produce a thick paste of bacterial cells that was kept frozen at -20°C. Cells were resuspended at 2% W/V in 0.5X LNGM to produce liquid worm food). Using a COPAS Biosort (Union Biometrica), two L4 to young adult stage VC2010 worms were added to each well of the plate in a final volume of 45 μL. After five days of exposure to the compounds, the plates were scanned and the data analyzed. A five day time period was chosen to be able to observe effects over all stages of the life cycle and through at least one round of replication. The initial proof-of-principle primary screen was performed manually using a dissecting microscope. Phenotypes scored included decreased motility, reduced brood size, and/or death as described previously. For high throughput screening of the Chembridge and Maybridge compound libraries we used the program WormScan, which was adapted for screening 96-well flat-bottom LNGM plates. Using WormScan it was possible to screen four 96-well plates at a time. Plates were scanned twice, at a resolution of 1200 dots per inch, 16-bit grayscale, producing a jpeg image. The light intensity produced by the scanner was sufficient to cause negative phototaxis equivalent to a physical stimulus for mortality determination. The time required to scan four 96-well plates using an Epson Perfection V700 Photo Scanner was less than ten minutes. The time to screen a single plate was less than 1.2 minutes, with less than ten seconds between scans.
(§2) WormScan was used to screen for the same phenotypes as in the manual screen (reduced brood size, reduced behavior/motility response and increased mortality). Two sequential scans for each 96-well plate were aligned to a reference region of interest (ROI). Image analysis was based on a difference image score calculated for each ROI. The difference image score (WormScan score) was normalized using a “percent of control” method to derive a normalized WormScan score. […] Wild-type growth in 1% DMSO (Fig 1A) results in a normalized WormScan score of 100. Exposure to 50 nM ivermectin gives a score of 0 (Fig 1C), and complete absence of worms gives a score of 0 (Fig 1D). For the primary screen the WormScan score was calculated using custom macro scripts written for Fiji. For secondary screening and any subsequent studies the WormScan score was calculated using a standalone Java program (See supplemental). Probit regression of mortality was calculated using Mathematica 8.0.

The subject of experiment [2] is C. elegans DA1316 (avr-14(ad1302); avr-15(vu227); glc-1(pk54), ivermectin resistant). Description: IC50 on ivermectin resistant C. elegans strain. It counts as in vivo, Caenorhabditis elegans. The following applies: 5 days exposure, 2 L4 per well, three biological replicates.
In experiment [3] the test system is C. elegans CB3474 (ben-1(e1880), benomyl resistant). Description: IC50 on benzimidazole resistant C. elegans strain. The following applies: 5 days exposure, 2 L4 per well, three biological replicates. It counts as in vivo, Caenorhabditis elegans.
The subject of experiment [4] is C. elegans CB193 (unc-29(e193), levamisole resistant). Description: IC50 on levamisole resistant C. elegans strain. The class given is in vivo, Caenorhabditis elegans. The note with it: 5 days exposure, 2 L4 per well, three biological replicates.
The test system of experiment [5] is C. elegans RB2119 (acr-23(ok2804), monepantel-resistant). Description: IC50 on amino-acetonitrile resistant C. elegans strain. The following applies: 5 days exposure, 2 L4 per well, three biological replicates, read-out: IC50, strain RB2119 (amino-acetonitriles). The class given is in vivo, Caenorhabditis elegans.
Experiment [6] concerns C. elegans VC3635 (pink-1 gk3615, D19 resistant). Description: IC50 on CID 2747322 resistant C. elegans strain VC3635. It counts as in vivo, Caenorhabditis elegans. The note with it: 5 days exposure, 2 L4 per well, three biological replicates. As for the experimental part: as §1, §2
(§3) A standard ethyl methanesulfonate (EMS) mutagenesis protocol was carried out using VC2010 in order to generate mutants resistant to CID 2747322 exposure. First larval stage (L1) F2 progeny of mutagenized P0s were exposed to CID 2747322 at 200 μM in liquid worm food in 24-well tissue culture plates for five days at room temperature, and two independently isolated resistant lines (VC3614 and VC3615) were identified. […]

Experiment [7] concerns C. elegans VC3631 (mev-1 gk3613, D19 resistant). Description: IC50 on CID 2747322 resistant C. elegans strain VC3631. The following applies: 5 days exposure, 2 L4 per well, three biological replicates. The class given is in vivo, Caenorhabditis elegans. As for the experimental part: as §1, §2, §3
In experiment [8] the test system is Human embryonic kidney (HEK293) cells. Description: HEK293 viability, MTT colorimetric assay. The following applies: read-out: Mammalian IC50. It counts as cell-based. The protocol:
Potential anthelmintic compounds identified from primary screening were further tested against mammalian cells and yeast to determine whether they had deleterious effects in those organisms. Human embryonic kidney (HEK293) cells were grown in Dulbecco’s Modified Eagle’s Medium (DMEM; Sigma) containing 5% fetal bovine serum (FBS; Sigma) in 96-well plates tissue culture plates. Compounds were added 24h post-plating at 10, 30, 100, or 300 μM final concentrations. Dimethyl sulfoxide (DMSO) was used as a negative control at 0.1%. Cells were treated for 24 or 48 hours, after which time viability was assessed using a 3-(4,5-dimethylthiazol-2-yl)-2,5-diphenyltetrazolium bromide (MTT) colorimetric assay. Percent viability was determined by comparing treatment values to DMSO control values.
In general terms: Tetrazolium assays rely on reduction of a dye to a coloured formazan, in cell work by metabolically active cells.

Experiment [9] concerns S. cerevisiae yeast strain BY4743. Description: Yeast growth rate (OD600) dose titration. The class given is cell-based. The following applies: BY4743, YPD, growth rate reduced by 50%. The protocol: The S. cerevisiae yeast strain BY4743 (MATa/α his3Δ1/his3Δ1 leu2Δ0/leu2Δ0 LYS2/lys2Δ0 met15Δ0/MET15 ura3Δ0/ura3Δ0) was used for all yeast experiments and was grown using yeast extract peptone dextrose (YPD) media at pH 7 [52]. BY4743 was grown overnight to initial log phase and was then grown with the compound identified in the C. elegans assay. The growth rate was quantified by continuously monitoring the optical density of the liquid yeast growth at OD600. The compound was screened in a dose-titration in YPD as described. The IC50 was the concentration required to reduce the growth rate or Average G value by 50% compared to a vehicle control (2% DMSO).

Experiment [10] concerns C. elegans VC2010. Description: Manual inspection of growth, brood size, developmental stage and recovery of C. elegans in drug. The following applies: L1s removed from the drug. It counts as in vivo, Caenorhabditis elegans. As for the experimental part:
WormScan is a powerful tool to identify compounds with potential effects on the nematode, but it is still necessary to do manual inspection of wells with few animals to determine details of growth, behavior and fecundity. Wild-type worms grown in 90 μM CID 2747322 have brood sizes reduced by 97%. […] All current classes of anthelmintic have greater specificity towards certain life-stages. It is interesting that when removed from the drug L1s will recover and develop, and generally become fertile adults (See S3 Fig).
Supplementary file pntd.0005058.s002.tiff: S2 Fig Developmental stage of inhibition in C. elegans after CID 2747322 exposure. Ten VC2010 L1 stage C. elegans were sorted into a DMSO control well or 90 μM of CID 2747322. Nematodes were removed from the DMSO control or CID 2747322 after 24/48/72 hours and allowed to recover for 30 minutes on standard agar plates. (TIFF) Click here for additional data file.
Supplementary file pntd.0005058.s003.tiff: S3 Fig Development of C. elegans after removel from CID 2747322. Greater than 50 VC2010 L1 stage C. elegans were sorted into a DMSO control well or 90 μM of CID 2747322. Nematodes were removed from DMSO control or CID 2747322 after 2 days of exposure and left to recovery for 24/48/72 hours. (TIFF) Click here for additional data file.

Experiment [11] relates to nematodes. Also on record: method as in PMID 10924467. The note with it: cited from earlier work.
Experiment [12] has as its system A. suum complex II. Also on record: method as in PMID 26198225. The following applies: cited from earlier work.
Experiment [13] deals with porcine complex II. More on the design: method as in PMID 26198225. The following applies: cited from earlier work.
For experiment [14], the system named is C. elegans VC2010. Description: Manual phenotyping pilot screen of 3,584 known compounds (CCBN library). It counts as in vivo, Caenorhabditis elegans. The note with it: dissecting microscope, positively confirmed drugs of CCBN library.
The mark [15] stands for this setting: Caenorhabditis elegans, 120 h, 5 days exposure, 2 L4 per well, three biological replicates, read-out: IC50, strain VC2010 (wild type).
[16] abbreviates: 5 days exposure, 2 L4 per well, three biological replicates, read-out: IC50, strain VC2010 (wild type).
[17] abbreviates: C. elegans, 5 days exposure, read-out: Nematode IC50.

By IC50 is commonly meant the concentration that gives 50% inhibition.

`c1ccc2[nH]cnc2c1` [Benzimidazole]: the IC50 is 61 µM in experiment [1] (setting [15]); 59 µM in experiment [2] (Caenorhabditis elegans, 120 h); greater than 1000 µM in [3] (Caenorhabditis elegans, 120 h); 113 µM in [4] (Caenorhabditis elegans, 120 h); 28 µM in experiment [5] (Caenorhabditis elegans, 120 h); 118 µM in [6] (Caenorhabditis elegans, 120 h). In experiment [7] (Caenorhabditis elegans, 120 h), the IC50 is 91 µM.

`FC(F)(F)c1cc(NCc2ccccc2)nc(-c2ccccc2)n1` [CID 796072]: the half-maximal inhibitory concentration (IC50) in [1] (setting [16]) is 7 µM; in experiment [1] (setting [17]), 7 µM; in experiment [8], 28 µM; in experiment [9], greater than 1000 µM; in [2], 8 µM; in experiment [3] it was 2 µM. For the same molecule, the IC50 was determined as 3 µM in experiment [4], 2 µM in experiment [5], 9 µM in [6] and 11 µM in experiment [7]. The “greater sensitivity in C. elegans than in other organisms (nematode index)” value in experiment [1] (C. elegans versus mammalian cells, Table 1) was “four-fold”.

Regarding `Cc1csc2sc(C(=O)CC(=O)C(F)(F)F)c(C)c12` [CID 2743002], the IC50 was greater than 500 µM in [1] (setting [17]), 54 µM in [8] and 20 µM in experiment [9].

For the molecule `Cc1nn(S(=O)(=O)c2ccccc2)c(C)c1Oc1ccc(Cl)cc1` [CID 2745791], the figures for the 50% inhibitory concentration (IC50) in [1] (setting [17]), in experiment [8] and in experiment [9] were 99 µM, 54 µM and greater than 1000 µM, respectively.

As to `COc1ccc(OCCNC(=O)c2c(F)cccc2Cl)cc1` [CID 2747279], the “anthelmintic activity on retest of the 50 compounds most similar to CID 2747322” value in experiment [1] (C. elegans, re-pinned, two additional biological replicates) is listed as “strong anthelmintic activity”. Besides, the IC50 in experiment [1] (Caenorhabditis elegans, 120 h, C. elegans, 5 days exposure, read-out: Nematode IC50) is 13 µM; in [8] (Homo sapiens), 190 µM; in experiment [9] (Saccharomyces cerevisiae), greater than 1000 µM.

Turning to `O=C(Nc1ccc(Cl)cc1)Nc1ccc2ncccc2c1` [CID 2823320], the IC50 in experiment [1] (setting [17]) was 40 µM; in experiment [8] it was 45 µM; in [9] it was greater than 1000 µM.

For `Cc1nc2c(c3c1[nH]c1ccccc13)C(=O)CC(C)(C)C2` [CID 3254982], the IC50 in [1] (setting [17]) was 17 µM; in [8], 37 µM; in [9], 140 µM.

Consider `C=C(C)C1CC=C(CN(C)C2CCN(C)CC2)CC1` (stereo not shown) [CID 6456299], for which the IC50 in experiment [1] (setting [17]) is greater than 500 µM; in experiment [8], 184 µM; in [9], greater than 1000 µM.

Consider `O=C(NCCc1ncc(C(F)(F)F)cc1Cl)c1ccccc1C(F)(F)F` [Fluopyram, reference compound], for which the IC50 in experiment [1] (Caenorhabditis elegans, 120 h, read-out: Nematode IC50) was 0.05 µM; in experiment [8] (Homo sapiens), 300 µM; in experiment [9] (Saccharomyces cerevisiae) it was greater than 1000 µM. Further, the “outcome after exposure / removal from drug” value in [10] is “animals are killed”.

On to `c1ccc([C@H]2CN3CCSC3=N2)cc1` [Levamisole], for which the concentration for half-maximal inhibition (IC50) in [1] (setting [15]) is 4 µM; in experiment [2] (Caenorhabditis elegans, 120 h) it was 8 µM; in experiment [3] (Caenorhabditis elegans, 120 h), 2 µM; in experiment [4] (Caenorhabditis elegans, 120 h), greater than 250 µM; in experiment [5] (Caenorhabditis elegans, 120 h), 4 µM; in experiment [6] (Caenorhabditis elegans, 120 h), 6 µM. Further, in [7] (Caenorhabditis elegans, 120 h), the concentration for half-maximal inhibition (IC50) was 10 µM.

Turning to `CC1(C)SC2C(N)C(=O)N2C1C(=O)O` (stereo not shown) [WACT162], in experiment [11], the effect on nematodes result was “only reduces growth”.

For `CC(C)Oc1cccc(NC(=O)c2ccccc2C(F)(F)F)c1` [flutolanil], the IC50 is 0.0245 µM in experiment [12] and 8.61 µM in experiment [13].

As for Ivermectin, the “WormScan Score” value in experiment [1] (50 μM, five days exposure, normalized, DMSO control = 100) was 0. In addition, the IC50 in experiment [1] (setting [16]) is 0.03 µM; in [1] (setting [17]), 0.03 µM; in experiment [8] it was 300 µM; in experiment [9], greater than 1000 µM; in [2] it was 7 µM; in [3] it was 0.01 µM. The IC50 in experiment [4], in experiment [5], in experiment [6] and in experiment [7] was 0.01 µM throughout. Further, the “normalized WormScan score” value in experiment [1] (normalized, DMSO control = 100) is listed as 0. Besides, in experiment [14], the “Worm Reaction in Drug” value is on record as “appears dead/paralyzed no progeny”.
